System: HEP-G2 cells
Test: Inhibition of cholesterol biosynthesis (14C-acetate incorporation into cholesterol)
Assay type: cell-based
Settings: Homo sapiens, HepG2; HEP-G2 monolayers, 1 h preincubation, 3 h with 14C-sodium acetate; read-out: IC50 value (concentration at which 50% of the cholesterol synthesis was inhibited)
Protocol: 4. Inhibition of cholesterol biosynthesis
The biological effectiveness of the compound of the formula I was determined using cell cultures of cell line HEP-G2. For this purpose, monolayers of HEP-G2 cells were preincubated for one hour in a lipo-protein-free culture medium containing appropriate concentrations of the test substances; after the ^14 C-labeled precursor ^14 C-(sodium acetate) has been added, incubation is continued for three hours. After this, a portion of the cells are subjected to alkaline hydrolysis, an internal standard of ^3 H-cholesterol having been added previously. The lipids of the hydrolysed cells are extracted using chloroform/methanol. Support-cholesterol is added, and this lipid mixture is then separated by means of preparative thin-layer chromatography; the cholesterol band is made visible and then isolated, and the amount ^14 C-cholesterol which has been formed from the ^14 C-precursor is determined scintigraphically. […] In aliquots of the cell culture, the intactness of the cell culture and lack of damage to cells by the influence of preparations is assessed morphologically (in an optical microscope) and biochemically by determining the amount of lactate dehydrogenase in the incubation medium. […]

CC[C@H](C)C(=O)O[C@H]1C[C@@H](C)C=C2C=C[C@H](C)[C@H](CC[C@@H]3C[C@@H](O)CC(=O)O3)[C@H]21 [lovastatin]
IC50: 20 nM

— patent US5118882A, “Streptenols from streptomycetes, and the preparation and use thereof” (Hoechst Aktiengesellschaft, priority 1989, dated 1992)
